Earlier results on one compound are cited in article PMC2833348 (Bioorganic & medicinal chemistry letters, 2010).

SMILES strings stand for the structures.

As a reminder, the IC50 is the concentration needed to halve the response being measured.

In this data set the test system is cell - cell fusion (CCF). Particulars: read-out: IC50 against cell - cell fusion (CCF).

In the case of `COc1ccc(S(=O)(=O)O)cc1/N=N/c1c(S(=O)(=O)O)cc2cc(Nc3nc(Nc4ccccc4)nc(Nc4cc(C)c(/N=N/c5cc(S(=O)(=O)O)cc6cc(S(=O)(=O)O)cc(O)c56)cc4OC)n3)ccc2c1O` [ADS-J1], the IC50 was 4.2 µM.
